Consider 24 molecules from BindingDB's records for doi:10.1038/nchembio.662 (University of California San Francisco, 2011).

In general, Ki refers to a dissociation constant, usually derived from enzyme kinetics or from competition with a known ligand. A high value points to a looser hold on the target.

The target of one experiment is D(3) dopamine receptor (Homo sapiens, UniProt P35462). Nature of the experiment: Binding Assay. Particulars: pH 7.4; 22 °C. The procedure:
(§1) Affinities for D3-dopaminergic, D2-dopaminergic and beta2-adrenergic receptors were determined by radioligand competition binding at the National Institute of Mental Health Psychoactive Drug Screening Program.

A further experiment deals with D(2) dopamine receptor (Homo sapiens, UniProt P14416). Nature of the experiment: Binding Assay. Conditions: pH 7.4; 22 °C. As to the method: as §1
Sequence of D(2) dopamine receptor (P14416 whole entry): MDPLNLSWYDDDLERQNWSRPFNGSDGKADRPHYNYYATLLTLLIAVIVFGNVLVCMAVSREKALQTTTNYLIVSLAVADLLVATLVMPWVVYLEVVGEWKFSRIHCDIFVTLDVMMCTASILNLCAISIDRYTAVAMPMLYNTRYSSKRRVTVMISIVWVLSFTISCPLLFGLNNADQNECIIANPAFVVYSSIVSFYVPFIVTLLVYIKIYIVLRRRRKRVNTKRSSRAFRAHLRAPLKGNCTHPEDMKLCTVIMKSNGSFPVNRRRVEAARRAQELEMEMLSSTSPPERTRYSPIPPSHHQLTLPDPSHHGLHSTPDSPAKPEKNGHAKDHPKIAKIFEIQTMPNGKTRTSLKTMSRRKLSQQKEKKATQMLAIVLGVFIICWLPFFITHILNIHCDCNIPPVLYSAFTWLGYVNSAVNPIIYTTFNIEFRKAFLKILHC

Sequence of D(3) dopamine receptor (P35462 as listed by the source): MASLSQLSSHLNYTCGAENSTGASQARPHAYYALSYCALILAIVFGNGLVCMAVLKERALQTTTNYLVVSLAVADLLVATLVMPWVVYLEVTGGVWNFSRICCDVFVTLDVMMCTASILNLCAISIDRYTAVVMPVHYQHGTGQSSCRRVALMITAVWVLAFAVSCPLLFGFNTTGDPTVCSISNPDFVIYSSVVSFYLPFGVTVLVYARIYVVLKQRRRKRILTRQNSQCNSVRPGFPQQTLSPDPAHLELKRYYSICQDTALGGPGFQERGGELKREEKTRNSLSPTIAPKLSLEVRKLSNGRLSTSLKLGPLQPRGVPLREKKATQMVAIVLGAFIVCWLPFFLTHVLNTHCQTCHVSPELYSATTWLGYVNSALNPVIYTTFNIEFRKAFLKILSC

In the case of `c1ccc(Cn2cncn2)c(CNCc2ccc(-n3ccnc3)cc2)c1` [ZINC 30900826, 10], the Ki on D(3) dopamine receptor was found to be 10 µM.
For the molecule `C[C@H](C1CC1)N(CCC(=O)N1CCc2ccccc21)C1CC1` [ZINC 42123507, 27], the Ki on D(3) dopamine receptor is over 10 µM.
Same read-out and setting: to `CN(Cc1nc2ccccc2s1)C[C@H](O)Cc1ccccc1` [ZINC 27406499, 25] belongs over 10 µM; to `Cc1cccc2nc(C(=O)NCC(C)N(C)C)cn12` (configuration not stated) [ZINC 46272073, 50], 10 µM; to `CC(C)(C)NCc1ccc(-c2ccccc2Cl)o1` [ZINC 6743145, 66], 5.46 µM.
`O=c1oc2c(CN3CCCC3)c(O)ccc2c2c1CCC2` [ZINC 118327, 8] returned a Ki on D(3) dopamine receptor of over 10 µM.
Still for that read-out and setting: as for `CC[C@@H](CO)NCc1ccc(-c2cccc(Cl)c2C)o1` [ZINC 7538899, 72], the figure is 0.817 µM.
Consider `CCSc1nnc2n1CCCN2C(=O)CN1CCOCC1` [ZINC 17173082, 12], for which the results for the Ki on D(3) dopamine receptor and at D(2) dopamine receptor were 9.83 µM and 6.35 µM, respectively.
The corresponding values for `Clc1ccc(Cl)c(-c2ccc(CNC3CC3)o2)c1` [ZINC 4868730, 70] are 2.71 µM and 6.61 µM.
On D(3) dopamine receptor, `O[C@@H](CN1CCC(Oc2cccc(F)c2)CC1)c1cccs1` [ZINC 19294224, 9] registered a Ki of 9.46 µM.
Still for that read-out and setting: to `c1ccc(-c2n[nH]cc2CNCc2ccc(Cn3ccnc3)cc2)cc1` [ZINC 42228310, 26] belongs 9.31 µM.
The molecule `Cc1cccc2nc(C(=O)NCC(c3ccco3)N(C)C)cn12` (configuration not stated) [ZINC 41903371, 52] returned a Ki on D(3) dopamine receptor of 10 µM.
`CC1CCN(CCC(=O)N2c3ccccc3C[C@@H]2C)CC1` [ZINC 39217391, 11] registered a Ki at D(3) dopamine receptor of 9.28 µM. The Ki values of the last two molecules are within 1.5-fold of each other.
At D(3) dopamine receptor, `Cc1ccc(-c2ccc(CNC(C)(C)CO)o2)cc1Cl` [ZINC 4999756, 68] came in with a Ki of 2.74 µM.
As for `CN(CCCOc1ccccc1)CC(=O)N1CCc2ccccc21` [ZINC 48057418, 45], at D(3) dopamine receptor, the Ki turned out to be 7.21 µM.
Same read-out and setting: as for `N#C/C(=C\c1ccco1)C(=O)N1CCN(CCc2ccccc2)CC1` [ZINC 29218552, 47], the figure is 10 µM; as for `CC(C)(CO)NCc1ccc(-c2ccccc2)o1` [ZINC 529108, 67], 9.58 µM; as for `CN(CCOc1cccc(F)c1)CC(O)c1c(F)cccc1F` (configuration not stated) [ZINC 51423503, 49], 8.74 µM.
As for `CNCc1ccc(-c2cc(Cl)cc(Cl)c2)o1` [Azanium analog, 55], the Ki on D(3) dopamine receptor turned out to be 0.2 µM.
At D(3) dopamine receptor, `C[C@H](O)CNCc1ccc(-c2cccc(Cl)c2)o1` [ZINC 4842613, 71] came in with a Ki of 0.488 µM.
In turn, `CC(C)NCc1ccc(-c2ccccc2)o1` [ZINC 10436232, 69] returned a Ki at D(3) dopamine receptor of 8.89 µM.
In turn, `CC(C)(CO)NCc1ccc(-c2ccc(F)c(Cl)c2)o1` [ZINC 4942963, 64] displayed a Ki on D(3) dopamine receptor of 6.81 µM. The Ki values of the last two molecules are within 1.5-fold of each other.
Regarding `CC(C)(C)NCc1ccc(-c2ccccc2)o1` [ZINC 4942833, 65], the Ki at D(3) dopamine receptor stood at 8.67 µM; on D(2) dopamine receptor, 2.9 µM.
Turning to `CN(C)[C@H](CNC(=O)c1cc([N+](=O)[O-])cc([N+](=O)[O-])c1)c1ccco1` [ZINC 49944321, 48], the Ki on D(3) dopamine receptor turned out to be 7.77 µM.
